We go through one molecule from EP0969013B1, “Peptides for inhibiting HPV E7 proteins” (Deutsches Krebsforschungszentrum Stiftung des öffentlichen …, priority 1998, dated 2003).

Common to all, as to type: cell-based
Experiment [1] concerns E7/2 cells. In words: Growth rate of E7/2 cells (cell number). To be noted: 10 µM - 200 µM penetratin-fused synthesized peptide, 1 hour to 72 hours. As for the experimental part: (§1) • (A) Peptide No. 732 is chemically synthesized with a leader attached to the NH2 end and supporting the incorporation into cells. It is penetratin and originates from Drosophila antennapedia. Thus, peptide No. 732 is available as fusion polypeptide and has the following sequence: [formula] Cells are used in which HPV16 E7 is expressed and whose growth depends thereon. Such cells are e.g. E7/2 cells. They are transfected with 10 µM - 200 µM of the synthesized peptide No. 732. Growth rate, apoptosis and cell cycle profiles of the cells are determined 1 hour to 72 hours after the transfection. The former is effected by determining the cell number. As regards the second test, reference is made to Example 2 (A). As to the latter test, the cell DNA is stained with propidium iodide and its content is determined in a FACscan. On the basis thereof, the cell cycle profile is assessed by means of the CellQuest program (Schulze, A. et al., Proc. Natl. Acad. Sci, U.S.A. 92, (1995), 11264-11268), the number of cells in the S phase being taken as a marker for the cell proliferation. […] For this purpose, the BamHI/NdeI fragment (cf. Example 1) of pJM-1 is inserted in the vector pET 19b (Novagen company) so as to obtain the vector pH6-732. Thereafter, cleavage is carried out by means of Ndel and a TAT-cDNA of HIV-1 (Vives, E. et al., J. Biol. Chem. 272, (1997), 16010-16017) is inserted. […]

The test system of experiment [2] is E7/2 cells. In words: Apoptosis of E7/2 cells (propidium iodide, FACscan). To be noted: 10 µM - 200 µM penetratin-fused synthesized peptide, 1 hour to 72 hours. On the procedure:
24 hours after the transfection, the cells are fixed and stained using propidium iodide. The cells are analyzed in a FACscan by measuring the fluorescence caused by propidium iodide. Apoptotic nuclei are shown as nuclei having a DNA content of less than 2N. The amount of apoptotic nuclei is determined in comparison with normal nuclei.
• (A) Peptide No. 732 is chemically synthesized with a leader attached to the NH2 end and supporting the incorporation into cells. It is penetratin and originates from Drosophila antennapedia. Thus, peptide No. 732 is available as fusion polypeptide and has the following sequence: [formula] Cells are used in which HPV16 E7 is expressed and whose growth depends thereon. Such cells are e.g. E7/2 cells. They are transfected with 10 µM - 200 µM of the synthesized peptide No. 732. Growth rate, apoptosis and cell cycle profiles of the cells are determined 1 hour to 72 hours after the transfection. The former is effected by determining the cell number. […] As to the latter test, the cell DNA is stained with propidium iodide and its content is determined in a FACscan. On the basis thereof, the cell cycle profile is assessed by means of the CellQuest program (Schulze, A. et al., Proc. Natl. Acad. Sci, U.S.A. 92, (1995), 11264-11268), the number of cells in the S phase being taken as a marker for the cell proliferation. […]

Experiment [3] relates to E7/2 cells. In words: Cell cycle profile of E7/2 cells (propidium iodide, FACscan, CellQuest). To be noted: 10 µM - 200 µM penetratin-fused synthesized peptide, 1 hour to 72 hours, marker for cell proliferation. As for the experimental part:
as §1

Peptide text beside a SMILES is read from it.

Take `CC[C@H](C)[C@H](NC(=O)[C@H](CCCCN)NC(=O)[C@H](CCCCN)NC(=O)[C@H](Cc1c[nH]c2ccccc12)NC(=O)[C@H](CCCCN)NC(=O)[C@H](CCSC)NC(=O)[C@H](CCCNC(=N)N)NC(=O)[C@H](CCCNC(=N)N)NC(=O)[C@H](CC(N)=O)NC(=O)[C@H](CCC(N)=O)NC(=O)[C@H](Cc1ccccc1)NC(=O)[C@H](Cc1c[nH]c2ccccc12)NC(=O)[C@@H](NC(=O)[C@H](CCCCN)NC(=O)[C@@H](NC(=O)[C@H](CCC(N)=O)NC(=O)[C@@H](N)CCCNC(=N)N)[C@@H](C)CC)[C@@H](C)CC)C(=O)N[C@@H](C)C(=O)N[C@@H](C)C(=O)N[C@@H](CCCNC(=N)N)C(=O)N[C@@H](CC(C)C)C(=O)N[C@@H](CCCNC(=N)N)C(=O)N[C@@H](CC(C)C)C(=O)N[C@@H](CCCNC(=N)N)C(=O)N[C@@H](CS)C(=O)NCC(=O)N[C@H](C(=O)N[C@H](C(=O)N[C@@H](CC(C)C)C(=O)N[C@@H](CC(C)C)C(=O)N[C@@H](CC(C)C)C(=O)N[C@@H](CS)C(=O)N[C@H](C(=O)N[C@@H](CC(C)C)C(=O)N[C@@H](CC(=O)O)C(=O)N[C@@H](CC(C)C)C(=O)O)[C@@H](C)O)[C@@H](C)CC)C(C)C` [peptide No. 732] (H-RQIKIWFQNRRMKWKKIAARLRLRCGVILLLCTLDL-OH): in the experiment with E7/2 cells [1], the growth rate result is listed as “reduces the growth rate”. Further, the apoptosis frequency entry in the experiment on E7/2 cells [2] is on record as “lowers the apoptosis frequency”. The “number of cells in the S phase” value with E7/2 cells [3] is “reduces the number of cells in the S phase”.
